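Each compound was tested at five concentrations against cells in 96-well plates for 48 hours. GI50 = concentration required for 50% inhibition of growth.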 Calls of active or inactive are those of the source. Cut-off read from the data, not from the text of the source: active = GI50 up to about 1.1 µM and inactive = higher.
Legend:
Test in all cases: NCI-60 cell line screen, 48 h
A498 = tested on: A498
TK-10 = tested on: TK-10
HOP-62 = tested on: HOP-62
SK-MEL-2 = tested on: SK-MEL-2
SF-268 = tested on: SF-268
CCRF-CEM = tested on: CCRF-CEM
M14 = tested on: M14
DLD-1 = tested on: DLD-1
CAKI-1 = tested on: CAKI-1
LOX IMVI = tested on: LOX IMVI
HL-60 = tested on: HL-60
UACC-62 = tested on: UACC-62
DMS-273 = tested on: DMS-273
MDA-N = tested on: MDA-N
PC-3 = tested on: PC-3
NCI/ADR-RES = tested on: NCI/ADR-RES
SR = tested on: SR
MCF7 = tested on: MCF7
T47D = tested on: T47D
BT-549 = tested on: BT-549

Structure (SMILES)	GI50 (A498)	GI50 (TK-10)	GI50 (HOP-62)	GI50 (SK-MEL-2)	GI50 (SF-268)	GI50 (CCRF-CEM)	GI50 (M14)	GI50 (DLD-1)	GI50 (CAKI-1)	GI50 (LOX IMVI)	GI50 (HL-60)	GI50 (UACC-62)	GI50 (DMS-273)	GI50 (MDA-N)	GI50 (PC-3)	GI50 (NCI/ADR-RES)	GI50 (SR)	GI50 (MCF7)	GI50 (T47D)	GI50 (BT-549)
CC1=NN(C(=O)c2ccc(Cl)cc2)C(=O)/C1=C/c1cccc([N+](=O)[O-])c1	> 100 µM (inactive)	> 100 µM (inactive)	> 100 µM (inactive)	> 100 µM (inactive)	> 100 µM (inactive)	> 100 µM (inactive)	> 100 µM (inactive)	> 100 µM (inactive)	> 100 µM (inactive)	> 100 µM (inactive)	> 100 µM (inactive)	> 100 µM (inactive)	–	–	–	–	–	–	–	–
O=C(NN1C(=O)CSC1c1ccc(Cl)c(Cl)c1)c1ccncc1 (stereo not drawn)	29.9 µM (inactive)	57.7 µM (inactive)	–	83.8 µM (inactive)	78.3 µM (inactive)	77.3 µM (inactive)	44.5 µM (inactive)	38.6 µM (inactive)	> 100 µM (inactive)	66.4 µM (inactive)	37.8 µM (inactive)	31.8 µM (inactive)	64.3 µM (inactive)	–	–	–	–	–	–	–
CN1CCN([C@H]2C[C@H]3[C@@H]4CC=C5C[C@@H](O)CC[C@]5(C)[C@H]4CC[C@]3(C)[C@H]2O)CC1	> 100 µM (inactive)	> 100 µM (inactive)	> 51.9 µM (inactive)	> 83.9 µM (inactive)	> 41.7 µM (inactive)	25 µM (inactive)	17.5 µM (inactive)	–	> 100 µM (inactive)	> 43.4 µM (inactive)	16.8 µM (inactive)	> 44 µM (inactive)	–	19 µM (inactive)	> 51.2 µM (inactive)	> 87.7 µM (inactive)	25.8 µM (inactive)	> 45.6 µM (inactive)	> 47.4 µM (inactive)	> 81.8 µM (inactive)
OC1C[C@H](c2ccccc2)C2(C(O)c3ccccc3C2O)[C@@H](c2ccccc2)C1 (stereo partly drawn)	> 100 µM (inactive)	> 100 µM (inactive)	> 100 µM (inactive)	> 100 µM (inactive)	> 100 µM (inactive)	99.1 µM (inactive)	> 100 µM (inactive)	–	> 100 µM (inactive)	40.2 µM (inactive)	27.9 µM (inactive)	> 100 µM (inactive)	–	> 100 µM (inactive)	> 100 µM (inactive)	14.3 µM (inactive)	11.1 µM (inactive)	> 100 µM (inactive)	> 100 µM (inactive)	> 100 µM (inactive)
CC(C)(C)OC(=O)NC(Cc1ccc(OCc2ccccc2)cn1)C(=O)NCc1ccccc1 (stereo not drawn)	32.1 µM (inactive)	30.3 µM (inactive)	23.3 µM (inactive)	14.3 µM (inactive)	23.6 µM (inactive)	12.4 µM (inactive)	25.8 µM (inactive)	–	28.6 µM (inactive)	19.1 µM (inactive)	15.1 µM (inactive)	14.5 µM (inactive)	–	19.8 µM (inactive)	20.4 µM (inactive)	16.7 µM (inactive)	10.1 µM (inactive)	29.5 µM (inactive)	16.7 µM (inactive)	20.7 µM (inactive)
COc1ccc(N2C(=O)C3ON(C(C(N)=O)c4ccccc4)C(c4cc5ccccc5c5ccccc45)C3C2=O)cc1 (stereo not drawn)	> 50 µM (inactive)	28.8 µM (inactive)	> 50 µM (inactive)	18.3 µM (inactive)	40.9 µM (inactive)	12.7 µM (inactive)	17.7 µM (inactive)	–	9.1 µM (inactive)	24.2 µM (inactive)	9.27 µM (inactive)	10.6 µM (inactive)	–	11.8 µM (inactive)	30.7 µM (inactive)	> 50 µM (inactive)	16.1 µM (inactive)	15.6 µM (inactive)	28.6 µM (inactive)	24.7 µM (inactive)
CO[C@H]1O[C@@H]2CO[C@@H](c3ccccc3)O[C@H]2[C@@H]2C/C=C\CCC[C@@]12O	14.8 µM (inactive)	34.8 µM (inactive)	18 µM (inactive)	16 µM (inactive)	21.6 µM (inactive)	31 µM (inactive)	22.4 µM (inactive)	–	33.4 µM (inactive)	17.8 µM (inactive)	19.8 µM (inactive)	15.7 µM (inactive)	–	25.1 µM (inactive)	25.3 µM (inactive)	26.9 µM (inactive)	20.3 µM (inactive)	19.2 µM (inactive)	33.2 µM (inactive)	20.2 µM (inactive)
CC1CCCP(=O)(c2ccccc2)CC1 (stereo not drawn)	> 100 µM (inactive)	> 100 µM (inactive)	> 100 µM (inactive)	> 100 µM (inactive)	> 100 µM (inactive)	> 100 µM (inactive)	> 100 µM (inactive)	> 100 µM (inactive)	> 100 µM (inactive)	> 100 µM (inactive)	–	> 100 µM (inactive)	> 100 µM (inactive)	–	–	–	–	–	–	–
O=P(c1ccccc1)(c1ccccc1)C1CC=C(c2ccccc2)C2(CCCC2)C1 (stereo not drawn)	74.8 µM (inactive)	72.3 µM (inactive)	–	46.7 µM (inactive)	90.4 µM (inactive)	33.1 µM (inactive)	43.3 µM (inactive)	48.9 µM (inactive)	40.6 µM (inactive)	31.3 µM (inactive)	21.6 µM (inactive)	37.6 µM (inactive)	> 100 µM (inactive)	–	–	–	–	–	–	–
COc1ccc(C(=O)C(C(=O)C(=O)NCCCNC(=O)C(=O)C(C(=O)c2ccc(OC)cc2)c2ccc(OC)cc2)c2ccc(OC)cc2)cc1 (stereo not drawn)	–	> 100 µM (inactive)	> 100 µM (inactive)	> 100 µM (inactive)	> 100 µM (inactive)	> 100 µM (inactive)	> 100 µM (inactive)	> 100 µM (inactive)	–	> 100 µM (inactive)	> 100 µM (inactive)	> 100 µM (inactive)	> 100 µM (inactive)	–	–	–	> 100 µM (inactive)	–	–	–
CCCC(=O)Nc1cc(C(=O)N2C[C@H]3C[C@@]34C2=CC(=O)c2[nH]cc(C)c24)n(COC)c1	0.741 µM (active)	0.556 µM (active)	0.728 µM (active)	0.293 µM (active)	0.103 µM (active)	0.014 µM (active)	0.662 µM (active)	–	0.215 µM (active)	0.12 µM (active)	0.045 µM (active)	0.195 µM (active)	–	0.582 µM (active)	0.745 µM (active)	0.656 µM (active)	0.00516 µM (active)	0.0303 µM (active)	0.109 µM (active)	0.253 µM (active)
C=C(Cl)C(Cl)(CBr)CCC(Cl)C(C)C (stereo not drawn)	5.21 µM (inactive)	1.33 µM (inactive)	1.25 µM (inactive)	0.619 µM (active)	1.72 µM (inactive)	26.9 µM (inactive)	22.2 µM (inactive)	–	1.77 µM (inactive)	11.6 µM (inactive)	0.226 µM (active)	3.08 µM (inactive)	–	3.72 µM (inactive)	1.68 µM (inactive)	8.55 µM (inactive)	> 36.6 µM (inactive)	1.12 µM (active)	0.156 µM (active)	14.3 µM (inactive)
O=C(N/C(=C\c1ccccc1)c1nc2ccccc2c(=O)o1)c1ccccc1	> 100 µM (inactive)	> 100 µM (inactive)	> 52.5 µM (inactive)	> 100 µM (inactive)	23.8 µM (inactive)	> 100 µM (inactive)	> 79.6 µM (inactive)	–	> 78.3 µM (inactive)	27.3 µM (inactive)	> 100 µM (inactive)	30.1 µM (inactive)	–	> 53 µM (inactive)	> 100 µM (inactive)	33.4 µM (inactive)	> 100 µM (inactive)	5.38 µM (inactive)	> 28.6 µM (inactive)	20 µM (inactive)
C/C=C1/C(=Cc2[nH]c(C=c3[nH]/c(=C/C4=NC(=O)C(CC)=C4C)c(C)c3CCC(=O)O)c(CCC(=O)O)c2C)NC(=O)C1C (stereo not drawn)	–	> 50 µM (inactive)	2.33 µM (inactive)	9.08 µM (inactive)	7.89 µM (inactive)	2.1 µM (inactive)	1.87 µM (inactive)	2.58 µM (inactive)	16.4 µM (inactive)	1.04 µM (active)	7.59 µM (inactive)	8 µM (inactive)	5.45 µM (inactive)	–	–	–	4.37 µM (inactive)	–	–	–
COc1cc(CCN(C)C)cc(OC)c1OC	> 100 µM (inactive)	> 100 µM (inactive)	> 100 µM (inactive)	> 100 µM (inactive)	> 100 µM (inactive)	> 100 µM (inactive)	> 100 µM (inactive)	–	> 100 µM (inactive)	> 100 µM (inactive)	> 100 µM (inactive)	> 100 µM (inactive)	–	> 100 µM (inactive)	> 100 µM (inactive)	> 100 µM (inactive)	> 100 µM (inactive)	> 100 µM (inactive)	> 100 µM (inactive)	> 100 µM (inactive)
COc1ccc(NC(=O)CSc2nnc(Cc3ccccc3)o2)cc1	> 100 µM (inactive)	> 100 µM (inactive)	> 100 µM (inactive)	> 100 µM (inactive)	88.1 µM (inactive)	82.2 µM (inactive)	> 100 µM (inactive)	> 100 µM (inactive)	> 100 µM (inactive)	53.5 µM (inactive)	–	> 100 µM (inactive)	> 100 µM (inactive)	–	–	–	–	–	–	–
COC(=O)[C@]1(C)CCCC2(C)C1CC[C@H]1C=C(C)[C@H]3CCC12C3 (stereo partly drawn)	–	> 100 µM (inactive)	> 100 µM (inactive)	–	> 100 µM (inactive)	> 100 µM (inactive)	> 100 µM (inactive)	> 100 µM (inactive)	> 100 µM (inactive)	68.2 µM (inactive)	86.1 µM (inactive)	> 100 µM (inactive)	–	–	–	–	> 100 µM (inactive)	–	–	–
CC(=O)N[C@@H]1C(O)CN2C(=O)C(=O)O[C@H](C(O)CO)[C@@H]12 (stereo partly drawn)	> 100 µM (inactive)	> 100 µM (inactive)	> 100 µM (inactive)	> 100 µM (inactive)	> 100 µM (inactive)	> 100 µM (inactive)	–	> 100 µM (inactive)	–	> 100 µM (inactive)	> 100 µM (inactive)	–	> 100 µM (inactive)	–	–	–	–	–	–	–

Source: ChEMBL document CHEMBL1201862, “PubChem BioAssay data set” (2004)
